Entries after “also recorded” stand apart in the source; their conditions may differ. Where no end group is shown, it is not given here.
What was measured:
trypsin [1] = biological target: T1, trypsin (Bos taurus, UniProt P00760); experiment: Trypsin digestion of RAD16-I followed by MALDI-TOF; type: in vitro ADME; set-up: key to Peak Presence in MALDI Spectra: peak presence (+); absence (−); details: for Peak Presence in MALDI Spectra: fragments expected after trypsin digestion of RAD16-I, peptide 100 µM in water (50 µM elsewhere in the source), trypsin 1000:1 peptide:enzyme molar ratio, 0-30 min, untreated and thermally treated (90 °C, 10 min) samples, duplicate
T1 sequence (P00760 24-246): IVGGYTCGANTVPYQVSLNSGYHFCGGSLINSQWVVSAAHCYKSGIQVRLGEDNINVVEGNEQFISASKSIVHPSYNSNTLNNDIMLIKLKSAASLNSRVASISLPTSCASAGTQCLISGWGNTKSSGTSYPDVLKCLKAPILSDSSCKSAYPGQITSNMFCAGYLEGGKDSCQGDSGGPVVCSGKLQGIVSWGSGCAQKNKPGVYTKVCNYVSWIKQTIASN
Description: Matrix-assisted laser desorption/ionization time of flight (MALDI-TOF) of trypsin-digested peptide samples was performed on a Bruker Ultraflex mass spectrometer, equipped with a pulsed nitrogen laser (337 nm). The peptide RAD16-I was diluted from a stock solution to a final concentration of 100 µM in water. Trypsin was added in a molar ratio 1000:1 (peptide:enzyme). Peptide samples were incubated with trypsin at 37 °C for 0, 1, 5, 10 and 30 min (performed in duplicate), and boiled in order to inactivate trypsin. Samples were prepared by mixing 0.5 µL of the peptide solution with 1 µL of the matrix solution (0.3 mg/mL, α-cyano-4-hydroxy-cinnamic acid in ethanol/acetone 2:1). The mixture was then spotted on an anchor-chip target (Bruker, Billerica, MA, USA) and allowed to evaporate to dryness at room temperature. Spectra were acquired in positive reflectron mode, using an acceleration voltage of 25 kV. Acquisition was performed in automated mode, using the Autoexecute software (Bruker, Billerica, MA, USA). A total of 1000 spectra, collected in 50-shot series at different positions of the sample spot were averaged for each sample. A mixture of standard peptides of known molecular mass in the range from 750–3500 Da (Bruker) was used for external calibration of the mass spectra.
To evaluate RAD16-I trypsin degradation, we incubated the peptide with trypsin with or without the previous denaturation step (incubation at 90 °C for 10 min). Thus, we incubated the RAD16-I samples with trypsin at 37 °C for different periods of time, and at each timepoint we mixed the reaction product with the α-cyano-4-hydroxy-cinnamic acid matrix and let the sample dry. Finally, samples were analyzed by MALDI. […] Furthermore, small peaks with m/z 1642 and 1558 could be detected, which may correspond to the peptide chain without one amino acid residue, an alanine and an arginine, respectively. These peptides are most likely impurities from the RAD16-I peptide synthesis.
We next aimed to determine if the structural changes observed by CD after denaturing RAD16-I (Figure 2) had any influence on proteolytic degradation. For that, peptide stock solution was diluted to 50 µM and then denatured or not for 10 min at 90 °C. Then, trypsin was added and incubated at 37 °C for different periods of time. The proteolytic reaction was inactivated by boiling the samples, and samples were finally mixed with the matrix and MALDI spectra were acquired. […] Moreover, no differences between untreated and thermally treated samples were detected.
We hypothesized that these unexpected results were due to an inefficient […] of trypsin when MALDI samples were prepared, in which trypsin was inactivated by boiling the samples. […] In this case, the samples were taken and immediately mixed with the MALDI-TOF matrix and evaporated on the sample holder.

trypsin [2] = experiment: trypsin in water, molar ratio 1000:1 (peptide:enzyme); untreated (non-denatured) RAD16-I; details: 37 °C, up to 30 min
trypsin [3] = experiment: trypsin in water, molar ratio 1000:1 (peptide:enzyme); RAD16-I denatured for 10 min at 90 °C before trypsin; details: 37 °C, up to 30 min
trypsin [4] = biological target: T1, trypsin; experiment: Trypsin degradation of RAD16-I nanofibers imaged by AFM; type: in vitro ADME; details: RAD16-I 100 µM in water, AFM on mica
Description: (§1) To image the thermal denaturation of the self-assembling peptide, RAD16-I samples were diluted in water from a stock solution (5.38 mM) to a final concentration of 100 µM. The thermal treatment consisted of subjecting the sample to a 90 °C incubation for 10 min. Then, 1 µL of sample was deposited onto freshly cleaved mica (Grade V5 mica, Structure Probe Inc., 01804-CA, West Chester, PA, USA), rinsed twice with Milli-Q water and observed under the AFM. For RAD16-I degradation experiments, samples were prepared as follows: RAD16-I was diluted in water from a stock solution at a final concentration of 100 µM. For thermal treated samples, a 10 min denaturation step (incubation at 90 °C) was performed prior to the enzymatic degradation. Samples were cooled at room temperature and trypsin (Merck, T1426) was added at a 1:1000 molar ratio (enzyme:peptide). Samples (1 µL) were taken at 10 and 60 min and were deposited onto freshly cleaved mica, rinsed twice with Milli-Q water, air dried and scanned under the AFM.
AFM images were obtained with a silicon-scanning probe (AC240-TS, Asylum Research) with a resonance frequency of 70 KHz, spring constant 2 N/m, tip curvature radius <10 nm and 240 μm length. Images were obtained with a Multimode AFM microscope (Nanoscope IIIa, Digital Instruments, Santa Barbara, CA, USA) operating in TappingMode. AFM scans were taken at a resolution of 512 × 512 pixels and produced topographic images of samples, whose brightness of features increased as a function of height. Typical scanning parameters were as follows: tapping frequency 75 kHz, RMS amplitude before engagement 1–1.5 V, setpoint 0.7–1 V, integral and proportional gains from 0.3–0.6 and 0.4–0.6, respectively, and scan rate 1.51 Hz.
Because MALDI spectra results indicated peptide proteolysis upon trypsin treatment (Figure 4), we expected to detect structural changes in the peptide using AFM analysis. RAD16-I samples incubated with trypsin were taken at 10 and 60 min and directly spotted into freshly cleaved mica. Then the mica was rinsed with deionized water, dried and observed under the AFM. […]

[5] = Thermal stability of secondary structure by circular dichroism; type: physicochemical
Description: Circular dichroism studies were performed on a JASCO-810 spectropolarimeter equipped with a Peltier system. RAD16-I samples (commercially available as PuraMatrix^TM, 354250, Corning, Corning, NY, USA) were diluted from a peptide stock solution (1% in water, 5.38 mM) in deionized water to a final concentration of 25, 50 and 75 µM and allowed to equilibrate at 20 or 90 °C for 10 min prior to analysis. CD data were acquired in a range from 195–240 nm at a band width of 1 nm and scan speed of 20 nm/s.
As a self-assembling peptide, RAD16-I is composed of repeating units of hydrophilic and hydrophobic amino acids, in which the charged residues alternate positive and negative charges, forming a β-sheet structure in aqueous solutions (Figure 1). This characteristic sequence is the one responsible for the self-assembly of the peptide molecules into a hydrogel, formed by a network of interweaving nanofibers from 10–20 nm in diameter and 50–200 nm in pore size and, thus, the applicability of the material as a scaffold in biomedical applications. Circular dichroism (CD) studies were performed to characterize the RAD16-I peptide structure. As a peptide with a β-sheet secondary structure, RAD16-I circular dichroism spectrum at room temperature (20 °C) presented a minimum molar ellipticity at 218 nm, which represents the β-sheet content, and a maximum of approximately 195 nm, which corresponds to the backbone twist of the peptide in the β-sheet configuration [38]. […] This spectrum was also maintained when the peptide was incubated at 40 °C.

[6] = Thermal denaturation of nanofibers imaged by AFM; type: physicochemical; details: 100 µM in water, AFM on mica
Description: as §1
AFM images were obtained with a silicon-scanning probe (AC240-TS, Asylum Research) with a resonance frequency of 70 KHz, spring constant 2 N/m, tip curvature radius <10 nm and 240 μm length. Images were obtained with a Multimode AFM microscope (Nanoscope IIIa, Digital Instruments, Santa Barbara, CA, USA) operating in TappingMode. […]

Substance: ADAR [theoretical trypsin digestion fragment of RAD16-I]
- Peak Presence in MALDI Spectra (trypsin [1]; 37 °C, MALDI-TOF): +

Substance: ADARADA-NH2 [theoretical trypsin digestion fragment of RAD16-I]
- Peak Presence in MALDI Spectra (trypsin [1]; 37 °C, MALDI-TOF): +

Substance: ADARADAR [theoretical trypsin digestion fragment of RAD16-I]
- Peak Presence in MALDI Spectra (trypsin [1]; 37 °C, MALDI-TOF): +

Substance: ADARADARADA-NH2 [theoretical trypsin digestion fragment of RAD16-I]
- Peak Presence in MALDI Spectra (trypsin [1]; 37 °C, MALDI-TOF): +

Substance: ADARADARADAR [theoretical trypsin digestion fragment of RAD16-I]
- Peak Presence in MALDI Spectra (trypsin [1]; 37 °C, MALDI-TOF): +

Substance: ADARADARADARADA-NH2 [theoretical trypsin digestion fragment of RAD16-I]
- Peak Presence in MALDI Spectra (trypsin [1]; 37 °C, MALDI-TOF): −

Substance: AcN-RADAR [theoretical trypsin digestion fragment of RAD16-I]
- Peak Presence in MALDI Spectra (trypsin [1]; 37 °C, MALDI-TOF): +

Substance: AcN-RADARADAR [theoretical trypsin digestion fragment of RAD16-I]
- Peak Presence in MALDI Spectra (trypsin [1]; 37 °C, MALDI-TOF): +

Substance: AcN-RADARADARADAR [theoretical trypsin digestion fragment of RAD16-I]
- Peak Presence in MALDI Spectra (trypsin [1]; 37 °C, MALDI-TOF): +

Substance: AcN-RADARADARADARADA-CONH2
- fragment found (trypsin [2]): AcN-RADAR, 1 min; also recorded: AcN-RADARADAR, 1 min; also recorded: AcN-RADARADARADAR, 1 min; also recorded: ADAR, 1 min; also recorded: ADARADARADA-CONH2, 1 min; also recorded: ADARADA-CONH2, 1 min; also recorded: ADARADARADAR, 1 min; also recorded: ADARADAR, 1 min
- fragment found (trypsin [3]): AcN-RADARADAR, 1 min; also recorded: AcN-RADARADARADAR, 1 min; also recorded: ADAR, 1 min; also recorded: ADARADARADA-CONH2, 1 min; also recorded: ADARADA-CONH2, 1 min; also recorded: ADARADARADAR, 1 min; also recorded: ADARADAR, 1 min; also recorded: AcN-RADAR, 1 min

Substance: AcN-RADARADARADARADA-CONH2 [RAD16-I, self-assembling amphiphilic peptide scaffold, commercially available as PuraMatrix (1% in water)]
- Peak Presence in MALDI Spectra (trypsin [1]; 37 °C, MALDI-TOF): +
- peak belonging to RAD16-I (m/z 1712) after incubation with trypsin (trypsin [1]; peptide 50 µM, trypsin, 37 °C, 1 min or 30 min, reaction stopped by boiling, MALDI-TOF, regardless of incubation time, no difference between untreated and thermally treated): significantly reduced
- disappearance of RAD16-I peak (m/z 1713) upon trypsin treatment, denatured versus untreated samples (trypsin [1]; thermally denatured (90 °C, 10 min) samples compared with untreated, MALDI-TOF, Figure 4h): much faster
- degradation of the peptide by trypsin (m/z 1713 peak) (trypsin [1]; untreated and thermally treated samples, taken and immediately mixed with MALDI-TOF matrix and evaporated (no boiling)): very fast
- nanofibers after trypsin incubation, thermally treated samples, 10 min (trypsin [4]; 90 °C 10 min then cooled, trypsin 1:1000 enzyme:peptide, 10 min): only the presence of short fibers was detected
- nanofibers after trypsin incubation, thermally treated samples, 60 min (trypsin [4]; 90 °C 10 min then cooled, trypsin 1:1000 enzyme:peptide, 60 min): most of the fibers had disappeared
- nanofibers after trypsin incubation, untreated (RT) samples, 10 min to 60 min (trypsin [4]; trypsin 1:1000 enzyme:peptide molar ratio): slight change in nanofiber density
- thermal denaturation of concentrated solutions by CD ([5]; 5 mg/mL in water, 2.9 mM, incubated at 20 or 90 °C for 10 min, then diluted to 25 µM to record spectra): thermal denaturalization was not observed
- CD spectrum / secondary structure at 20 °C ([5]; 25, 50 and 75 µM in deionized water, 20 °C, 10 min equilibration, CD 195-240 nm): characteristic β-sheet spectrum
- CD β-sheet spectrum at 40 °C ([5]; 25, 50 and 75 µM in deionized water, 40 °C): maintained
- CD secondary structure at 90 °C, diluted samples ([5]; 25, 50 and 75 µM in deionized water, 90 °C, 10 min): structural transition from β-sheet to random coil
- reversibility of the β-sheet to random coil shift ([5]; diluted samples after heating at 90 °C, kept at room temperature): irreversible at room temperature for at least a week
- nanofiber network by AFM, thermally treated samples ([6]; 90 °C for 10 min): significantly less dense
- nanofiber structure by AFM, untreated samples ([6]; room temperature): dense network of long nanofibers

— publication PMC8945919 (Biomolecules, 2022)
